Reference: ChEMBL document CHEMBL5356961 (J Med Chem, 2023)
Active and inactive are the calls of the source. No cut-off for these calls is given here.

Assays:
[1] = molecular target: Nicotinamide phosphoribosyltransferase (Homo sapiens, UniProt P43490); test: Inhibition of recombinant human NAMPT preincubated for 5 mins followed by NAM addition measured for 15 mins by fluorescence based assay
CT26 [2] = test: Induction of DNA damage in mouse CT26 cells assessed as increase in gammaH2AX level at 0.1 to 10 uM measured after 12 hrs by immunoblot analysis; type: functional, cell-based; details: dose 0.1-10 µM
CT26 [3] = test: Antitumor activity against mouse CT26 cells assessed as inhibition of cell viability incubated for 72 hrs by SRB assay; type: functional, cell-based; details: CT26, 72 h
B16 [4] = test: Antitumor activity against mouse B16 cells assessed as inhibition of cell viability incubated for 72 hrs by SRB assay; type: functional, cell-based; details: B16, 72 h
LN-18 [5] = test: Antitumor activity against human LN-18 cells assessed as inhibition of cell viability incubated for 72 hrs by SRB assay; type: functional, cell-based; details: LN-18, 72 h
[6] = Antitumor activity against […] Hepa1-6 cells assessed as inhibition of cell viability incubated for 72 hrs by SRB assay; type: functional, cell-based; details: Mus musculus, Hepa1-6, 72 h
CT26 [7] = test: Antitumor activity against mouse CT26 cells assessed as decrease in intracellular NAD level upto 10 uM measured for 6 hrs by absorbance based assay; type: functional, cell-based
CT26 [8] = test: Induction of DNA damage in mouse CT26 cells assessed as increase in gammaH2AX level at 0.1 to 50 uM incubated for 6 hrs by immunoblot analysis; type: functional, cell-based; details: dose 0.1-50 µM
Calf thymus DNA = test: Binding affinity to calf thymus DNA assessed as decrease in fluorescence intensity at 100 to 200 uM by […] displacement assay; type: nucleic-acid assay; details: Bos taurus; dose 100-200 µM
A549 = test: Antitumor activity against human A549 cells assessed as inhibition of cell viability at 20 to 80 uM incubated for 48 hrs by CCK8 assay; type: functional, cell-based; details: dose 20-80 µM
NCI-H1299 = test: Antitumor activity against human NCI-H1299 cells assessed as inhibition of cell viability at 20 to 80 uM incubated for 48 hrs by CCK8 assay; type: functional, cell-based; details: dose 20-80 µM
HCT-116 = test: Antitumor activity against human HCT-116 cells assessed as inhibition of cell viability at 20 to 80 uM incubated for 48 hrs by CCK8 assay; type: functional, cell-based; details: dose 20-80 µM
MDA-MB-231 = test: Antitumor activity against human MDA-MB-231 cells assessed as inhibition of cell viability at 20 to 80 uM incubated for 48 hrs by CCK8 assay; type: functional, cell-based; details: dose 20-80 µM
HepG2 [9] = test: Antitumor activity against human HepG2 cells assessed as inhibition of cell viability at 20 to 80 uM incubated for 48 hrs by CCK8 assay; type: functional, cell-based; details: dose 20-80 µM
PANC-1 = test: Antitumor activity against human PANC-1 cells assessed as inhibition of cell viability at 20 to 80 uM incubated for 48 hrs by CCK8 assay; type: functional, cell-based; details: dose 20-80 µM
CT26 [10] = test: Induction of apoptosis in mouse CT26 cells incubated for 48 hrs by Annexin V-FITC/PI staining based flow cytometry; type: functional, cell-based; details: dose 10-40 nM
[11] = Stability in mouse microsomes assessed as half life; type: ADME, Microsome
CT26 [12] = test: Antitumor activity against mouse CT26 cells allografted in Balb/c mouse model at 2 mg/kg/day, ip for approximately 10 days; type: functional, organism-based; details: time 10.0 day
[13] = Toxicity in Balb/c mouse model allografted with mouse CT26 cells assessed as body weight loss at 2 mg/kg/day, ip for approximately 10 days; type: organism-based; details: in vivo, 240 h, time 10 day
[14] = Toxicity in C57BL/6 mouse model allografted with mouse B16 cells assessed as body weight loss at 2 mg/kg/day, ip for approximately 10 days; type: organism-based; details: in vivo, 240 h, time 10 day
B16 [15] = test: Antitumor activity against mouse B16 cells assessed as decrease in intracellular NAD level at 20 to 100 nM measured after 12 to 24 hrs by absorbance based assay; type: functional, cell-based; details: dose 20-100 nM, time 12-24 hrs
HepG2 [16] = test: Antitumor activity against human HepG2 cells assessed as decrease in intracellular NAD level measured for 24 hrs by absorbance based assay; type: functional, cell-based; details: dose 0.032-100 µM
[17] = molecular target: Nicotinamide phosphoribosyltransferase (Mus musculus) (UniProt Q99KQ4); test: Binding affinity to NAMPT in mouse B16 cells assessed as increase in thermal stabilization incubated for 3 hrs followed by heating at 46 to 71 degreeC for 3 mins by CETSA assay; type: cell-based; details: time 183.0 min
Sequence of Nicotinamide phosphoribosyltransferase (Mus musculus) (Q99KQ4 whole entry, looked up): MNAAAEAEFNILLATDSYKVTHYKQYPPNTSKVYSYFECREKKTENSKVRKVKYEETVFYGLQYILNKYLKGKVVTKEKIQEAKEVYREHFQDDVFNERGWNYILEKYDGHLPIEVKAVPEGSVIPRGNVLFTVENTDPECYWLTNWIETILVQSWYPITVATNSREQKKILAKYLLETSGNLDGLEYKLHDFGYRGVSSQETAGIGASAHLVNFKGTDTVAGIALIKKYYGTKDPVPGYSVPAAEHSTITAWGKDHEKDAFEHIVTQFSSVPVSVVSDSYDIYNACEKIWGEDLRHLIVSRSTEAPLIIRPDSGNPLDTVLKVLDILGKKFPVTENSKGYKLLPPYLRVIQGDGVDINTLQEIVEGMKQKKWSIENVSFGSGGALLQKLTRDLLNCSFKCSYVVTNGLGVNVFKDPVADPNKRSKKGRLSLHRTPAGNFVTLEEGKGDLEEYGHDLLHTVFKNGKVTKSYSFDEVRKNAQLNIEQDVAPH

B16 [18] = test: Induction of DNA damage in mouse B16 cells assessed as increase in gammaH2AX level at 100 nM by immunofluorescence staining based analysis; type: functional, cell-based; details: time 2-24 hrs
B16 [19] = test: Induction of DNA damage in mouse B16 cells assessed as increase in gammaH2AX level at 100 nM incubated for 24 hrs by immunofluorescence staining based analysis; type: functional, cell-based
B16 [20] = test: Induction of DNA damage in mouse B16 cells assessed as increase in gammaH2AX level at 0.1 uM incubated for 24 hrs by immunoblot analysis; type: functional, cell-based
B16 [21] = test: Induction of DNA damage in mouse B16 cells assessed as increase in gammaH2AX level at 0.1 uM incubated for 24 hrs by immunofluorescence staining based analysis; type: functional, cell-based
B16 [22] = test: Induction of DNA damage in mouse B16 cells assessed as increase in gammaH2AX level at 1 uM incubated for 24 hrs by immunoblot analysis; type: functional, cell-based
B16 [23] = test: Antitumor activity against mouse B16 cells assessed as decrease in intracellular NAD level at 20 nM measured after 12 to 24 hrs in presence of olaparib by absorbance based assay; type: functional, cell-based; details: time 12-24 hrs
B16 [24] = test: Induction of DNA damage in mouse B16 cells assessed as increase in gammaH2AX level at 20 nM incubated for 24 hrs in presence of olaparib by immunofluorescence staining based analysis; type: functional, cell-based
B16 [25] = test: Induction of DNA damage in mouse B16 cells assessed as increase in gammaH2AX level upto 100 nM incubated for 24 hrs in presence of NMN by immunofluorescence staining based analysis; type: functional, cell-based
LN-18 [26] = test: Antitumor activity against human LN-18 cells assessed as inhibition of cell viability at 6 nM incubated for 72 hrs in presence of sirtuins inhibitor by crystal violet staining based analysis; type: functional
LN-18 [27] = test: Antitumor activity against human LN-18 cells assessed as inhibition of cell viability at 6 nM incubated for 72 hrs in presence of NNMT inhibitor by crystal violet staining based analysis; type: functional

Sequence of Nicotinamide phosphoribosyltransferase (P43490 whole entry): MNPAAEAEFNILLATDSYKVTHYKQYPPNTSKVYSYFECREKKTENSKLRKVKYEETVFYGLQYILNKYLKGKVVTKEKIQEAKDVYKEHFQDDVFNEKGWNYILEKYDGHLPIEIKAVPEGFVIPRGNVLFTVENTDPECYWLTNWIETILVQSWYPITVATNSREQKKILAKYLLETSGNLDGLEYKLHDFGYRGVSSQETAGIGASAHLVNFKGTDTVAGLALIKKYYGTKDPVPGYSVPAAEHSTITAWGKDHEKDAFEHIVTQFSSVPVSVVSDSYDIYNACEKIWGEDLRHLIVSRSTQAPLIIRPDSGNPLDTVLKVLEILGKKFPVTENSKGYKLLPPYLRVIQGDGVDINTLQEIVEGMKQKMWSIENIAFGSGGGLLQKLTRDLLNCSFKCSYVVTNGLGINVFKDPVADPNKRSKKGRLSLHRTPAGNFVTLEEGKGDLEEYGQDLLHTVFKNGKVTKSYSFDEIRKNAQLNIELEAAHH

Compound `O=C(/C=C/c1cccnc1)OCCCCC1CCN(C(=O)c2cccc(N(CCCl)CCCl)c2)CC1` has an IC50 [1] of 3.9 nM.
With `O=C(/C=C/c1cccnc1)NCCCCC1CCN(C(=O)c2ccc(N(CCCl)CCCl)cc2)CC1` the IC50 [1] was 1.1 nM.
In the case of `O=C(/C=C/c1cccnc1)NCCCCC1CCN(C(=O)c2ccccc2N(CCCl)CCCl)CC1`, the IC50 [1] is reported as 0.16 nM, the Activity (CT26 [2]) is reported as “Active” and the IC50 (CT26 [3]) is reported as 53.8 nM. The IC50 (B16 [4]) was 72.5 nM, the IC50 (LN-18 [5]) was 31.3 nM and the IC50 [6] was 51.6 nM.
`O=C(/C=C/c1cccnc1)OCCCCC1CCN(C(=O)c2ccccc2N(CCCl)CCCl)CC1` gave an IC50 [1] of 1.3 nM.
With `O=C(/C=C/c1cccnc1)OCCCCC1CCN(C(=O)c2ccc(N(CCCl)CCCl)cc2)CC1` the IC50 [1] was 37.5 nM.
In the case of `O=C(/C=C/c1cccnc1)NCCCCC1CCN(C(=O)c2ccccc2)CC1` [DAPORINAD], the IC50 (CT26 [3]) is reported as 34.9 nM, the IC50 (B16 [4]) is reported as 219 nM and the IC50 (LN-18 [5]) is reported as 33.6 nM. For the same compound, the IC50 [6] was 33.6 nM, the Activity (CT26 [7]) was “Active” and the Activity (CT26 [8]) was “Active”.
In the case of `O=C(/C=C/c1cccnc1)NCCCCC1CCN(C(=O)c2cccc(N(CCCl)CCCl)c2)CC1`, the IC50 [1] is reported as 0.15 nM, the Activity (Calf thymus DNA) is reported as “Active” and the Activity (CT26 [2]) is reported as “Active”. It also gave an IC50 (CT26 [3]) of 21.8 nM, an IC50 (B16 [4]) of 52.4 nM and an IC50 (LN-18 [5]) of 0.7 nM. For the same compound, the IC50 [6] was 5.1 nM, the inhibition (A549) was “Active” and the inhibition (NCI-H1299) was “Active”. The inhibition (HCT-116) was “Active”, the inhibition (MDA-MB-231) was “Active” and the inhibition (HepG2 [9]) was “Active”. For the same compound, the inhibition (PANC-1) was “Active”, the Activity (CT26 [10]) was “Dose-Dependent Effect” and the half-life [11] was 56.1 s. For the same compound, the Activity (CT26 [12]) was “Active”, the Activity [13] was “Non-Toxic” and the Activity [14] was “Non-Toxic”. For the same compound, the Activity (B16 [15]) was “Active”, the Activity (HepG2 [16]) was “Dose-Dependent Effect” and the Activity [17] was “Active”. The Activity (B16 [18]) was “Dose-Dependent Effect”, the Activity (B16 [19]) was “Active” and the Activity (B16 [20]) was “Active”. For the same compound, the Activity (B16 [21]) was “Active”, the Activity (B16 [22]) was “Active” and the Activity (CT26 [7]) was “Active”. For the same compound, the Activity (CT26 [8]) was “Active”, the Activity (B16 [23]) was “inactive” and the Activity (B16 [24]) was “Active”. The Activity (B16 [25]) was “inactive”, the Activity (LN-18 [26]) was “Active” and the Activity (LN-18 [27]) was “Active”.
For `O=C(O)CCCc1ccc(N(CCCl)CCCl)cc1` [CHLORAMBUCIL], the IC50 (CT26 [3]) was > 1000 nM, the IC50 (B16 [4]) was > 1000 nM and the IC50 (LN-18 [5]) was > 1000 nM. For the same compound, the IC50 [6] was > 1000 nM.
